From patent EP3722296B1, “DIHYDRONAPHTHYRIDINES AND RELATED COMPOUNDS USEFUL AS KINASE INHIBITORS FOR THE TREATMENT OF PROLIFERATIVE DISEASES” (Deciphera Pharmaceuticals, LLC, priority 2012, dated 2013)
pIC50: −log10 of the molar value.

What was measured:
c-KIT D816V kinase = biological target: T1, c-KIT D816V kinase (Homo sapiens, UniProt P10721, D816V); experiment: c-KIT D816V kinase Assay; assay type: biochemical; settings: enzymatic assay, ATP 200 uM
T1 construct: residues T544-V976 with N-terminal GST fusion; purchased deCODE Biostructures
How it was run: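 Coupled assay in which NADH oxidation was tracked as decreasing absorbance at 340 nm, continuously for 5 hours at 30 °C after adding serially diluted compound. Enzyme: cKit residues T544-V976 with N-terminal tag, GST fusion and TEV cleavage site.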

c-KIT V654A kinase = biological target: T2, c-KIT V654A kinase (Homo sapiens, UniProt P10721, V654A); experiment: c-KIT V654A Kinase Assay; assay type: biochemical; settings: enzymatic assay, ATP 200 µM
T2 construct: residues T544-V976 with N-terminal GST fusion; purchased deCODE Biostructures
How it was run: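 Kinase activity tracked by coupled NADH consumption, monitored continuously at 340 nm over 6 h at 30 °C after serially diluted compound was mixed in to start inhibition. Enzyme used was a GST-fused, N-terminally tagged cKIT T544–V976 construct with a TEV cleavage site.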

Phospho-KIT (Tyr719) = experiment: GIST48 KIT Western Blot; assay type: cell-based; settings: GIST48 cells, 4 hours, serum-free medium; read-out: pKIT suppression by western blot analysi GIST48
How it was run: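 Phospho-KIT (Tyr719) was immunoblotted on PVDF and imaged in fluorescence mode after ECL Plus, with stripping and reprobing for total KIT. IC50 values were derived from the blot signals.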

c-KIT T670I kinase = biological target: T3, c-KIT T670I kinase (Homo sapiens, UniProt P10721, T670I); experiment: c-KIT T670I kinase assay; assay type: biochemical; settings: enzymatic assay
T3 construct: The construct contains residues T544-V976 of cKit; GST (N); TEV cleavage site (internal); purchased deCODE Biostructures
How it was run: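 Enzyme: GST-fused, N-terminally tagged cKit bearing T670I, with TEV cleavage site. Reaction started by mixing compound dilutions with reaction mix; activity read continuously over 5 h at 30 °C as loss of 340 nm absorbance from NADH consumption.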

GIST T1 cells = experiment: GIST T1 Cell Proliferation Assay; assay type: cell-based; settings: Homo sapiens, GISTT1, 72 h, 68 hours + 4 hours resazurin

T1 sequence (P10721 544-976 D816V): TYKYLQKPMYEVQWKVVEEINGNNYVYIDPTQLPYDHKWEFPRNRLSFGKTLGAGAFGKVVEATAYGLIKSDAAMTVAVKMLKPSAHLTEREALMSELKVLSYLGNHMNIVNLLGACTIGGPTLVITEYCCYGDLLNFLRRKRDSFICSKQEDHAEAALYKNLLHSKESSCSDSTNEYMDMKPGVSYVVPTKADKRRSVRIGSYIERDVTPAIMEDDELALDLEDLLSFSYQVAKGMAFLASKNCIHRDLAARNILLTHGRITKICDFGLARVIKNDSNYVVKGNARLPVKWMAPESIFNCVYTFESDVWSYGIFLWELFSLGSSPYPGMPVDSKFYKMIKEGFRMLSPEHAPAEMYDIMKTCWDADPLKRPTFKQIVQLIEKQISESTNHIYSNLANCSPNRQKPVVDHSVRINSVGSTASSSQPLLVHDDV
T3 sequence (P10721 544-976 T670I): as the sequence (P10721 544-976 D816V) above, with T127I, V273D counted along it
T2 sequence (P10721 544-976 V654A): as the sequence (P10721 544-976 D816V) above, with V111A, V273D counted along it

SMILES	pIC50 (c-KIT D816V kinase)	pIC50 (c-KIT V654A kinase)	pIC50 (Phospho-KIT (Tyr719))	pIC50 (c-KIT T670I kinase)	pIC50 (GIST T1 cells)
CCn1c(=O)c(-c2cc(NC(=O)Nc3ccccc3F)c(F)cc2Cl)cc2cnc(NC)cc21 [Example 25, 1-[4-chloro-5-(1-ethyl-7-methylamino-2-oxo-1,2-dihydro-[1,6]naphthyridin-3-yl)-2-fluoro-phenyl]-3-(2-fluoro-phenyl)-urea]	7.00 to 8.00	> 8.00	7.00 to 8.00	> 8.00	> 8.00
CCn1c(=O)c(-c2cc(NC(=O)Nc3cc(F)cc(F)c3)c(F)cc2C)cc2cnc(NC)cc21 [Example 60, 1-(3,5-difluorophenyl)-3-(5-(1-ethyl-7-(methylamino)-2-oxo-1,2-dihydro-1,6-naphthyridin-3-yl)-2-fluoro-4-methylphenyl)urea]	7.00 to 8.00	7.00 to 8.00	< 6.00	6.00 to 7.00	7.00 to 8.00
CCn1c(=O)c(-c2cc(NC(=O)Nc3cccc4ccccc34)c(F)cc2Cl)cc2cnc(NC)cc21 [Example 6, 1-(4-chloro-5-(1-ethyl-7-(methylamino)-2-oxo-1,2-dihydro-1,6-naphthyridin-3-yl)-2-fluorophenyl)-3-(naphthalen-1-yl)urea]	7.00 to 8.00	7.00 to 8.00	> 8.00	> 8.00	7.00 to 8.00
CCn1c(=O)c(-c2cc(NC(=O)Nc3ccc(F)c(CN4CCN(C)CC4)c3)c(F)cc2Cl)cc2cnc(NC)cc21 [Example 87, 1-(4-chloro-5-(1-ethyl-7-(methylamino)-2-oxo-1,2-dihydro-1,6-naphthyridin-3-yl)-2-fluorophenyl)-3-(4-fluoro-3-((4-methylpiperazin-1-yl)methyl)phenyl)urea]	6.00 to 7.00	6.00 to 7.00	7.00 to 8.00	7.00 to 8.00	7.00 to 8.00
CCn1c(=O)c(-c2cc(NC(=O)Nc3csc4ccccc34)c(F)cc2Cl)cc2cnc(NC)cc21 [Example 32, 1-(benzo[b]thiophen-3-yl)-3-(4-chloro-5-(1-ethyl-7-(methylamino)-2-oxo-1,2-dihydro-1,6-naphthyridin-3-yl)-2-fluorophenyl)urea]	> 8.00	7.00 to 8.00	> 8.00	7.00 to 8.00	> 8.00
CCn1c(=O)c(-c2cc(NC(=O)Nc3ccccc3)c(F)cc2Cl)cc2cnc(NC(=O)N3CC(N(C)C)C3)cc21 [Example 102, N-(3-(2-chloro-4-fluoro-5-(3-phenylureido)phenyl)-1-ethyl-2-oxo-1,2-dihydro-1,6-naphthyridin-7-yl)-3-(dimethylamino)azetidine-1-carboxamide]	7.00 to 8.00	7.00 to 8.00	7.00 to 8.00	7.00 to 8.00	> 8.00
CNc1cc2c(cn1)cc(-c1cc(NC(=O)Nc3cccc(F)c3)c(F)cc1Cl)c(=O)n2C(C)C [Example 77, 1-(4-chloro-2-fluoro-5-(1-isopropyl-7-(methylamino)-2-oxo-1,2-dihydro-1,6-naphthyridin-3-yl)phenyl)-3-(3-fluorophenyl)urea]	> 8.00	7.00 to 8.00	7.00 to 8.00	6.00 to 7.00	> 8.00
CCn1c(=O)c(-c2cc(NC(=O)Nc3cccc(F)c3)c(F)cc2C)cc2cnc(NC)cc21 [Example 44, 1-(5-(1-ethyl-7-(methylamino)-2-oxo-1,2-dihydro-1,6-naphthyridin-3-yl)-2-fluoro-4-methylphenyl)-3-(3-fluorophenyl)urea]	7.00 to 8.00	7.00 to 8.00	7.00 to 8.00	7.00 to 8.00	> 8.00
CCn1c(=O)c(-c2cc(NC(=O)Nc3ccccc3)c(F)cc2C)cc2cnc(NC(=O)N(C)C)cc21 [Example 101, 3-(1-ethyl-3-(4-fluoro-2-methyl-5-(3-phenylureido)phenyl)-2-oxo-1,2-dihydro-1,6-naphthyridin-7-yl)-1,1-dimethylurea]	7.00 to 8.00	7.00 to 8.00	< 6.00	7.00 to 8.00	> 8.00
CCn1c(=O)c(-c2cc(NC(=O)Nc3csc4ccccc34)c(F)cc2C)cc2cnc(NC)cc21 [Example 59, 1-(benzo[b]thiophen-3-yl)-3-(5-(1-ethyl-7-(methylamino)-2-oxo-1,2-dihydro-1,6-naphthyridin-3-yl)-2-fluoro-4-methylphenyl)urea]	7.00 to 8.00	7.00 to 8.00	7.00 to 8.00	7.00 to 8.00	7.00 to 8.00
CNc1cc2c(cn1)cc(-c1cc(NC(=O)Nc3ccccc3)c(F)cc1Cl)c(=O)n2C(C)C [Example 22, 1-(4-chloro-2-fluoro-5-(1-isopropyl-7-(methylamino)-2-oxo-1,2-dihydro-1,6-naphthyridin-3-yl)phenyl)-3-phenylurea]	> 8.00	7.00 to 8.00	7.00 to 8.00	6.00 to 7.00	> 8.00
CCn1c(=O)c(-c2cc(NC(=O)Nc3ccccc3)c(F)cc2Cl)cc2cnc(NC(=O)N(C)C)cc21 [Example 70, 3-(3-(2-chloro-4-fluoro-5-(3-phenylureido)phenyl)-1-ethyl-2-oxo-1,2-dihydro-1,6-naphthyridin-7-yl)-1,1-dimethylurea]	> 8.00	7.00 to 8.00	7.00 to 8.00	> 8.00	> 8.00
CCn1c(=O)c(-c2cc(NC(=O)Nc3cccc(F)c3)c(F)cc2Cl)cc2cnc(N)cc21 [Example 20, 1-(5-(7-amino-1-ethyl-2-oxo-1,2-dihydro-1,6-naphthyridin-3-yl)-4-chloro-2-fluorophenyl)-3-(3-fluorophenyl)urea]	> 8.00	7.00 to 8.00	6.00 to 7.00	> 8.00	

More lines, main results first:

pIC50 (c-KIT D816V kinase)	pIC50 (c-KIT V654A kinase)	pIC50 (Phospho-KIT (Tyr719))	pIC50 (c-KIT T670I kinase)	SMILES	pIC50 (GIST T1 cells)
7.00 to 8.00	7.00 to 8.00	6.00 to 7.00	7.00 to 8.00	CCn1c(=O)c(-c2cc(NC(=O)Nc3cccc(F)c3)c(F)cc2Br)cc2cnc(NC)cc21 [Example 50, 1-(4-bromo-5-(1-ethyl-7-(methylamino)-2-oxo-1,2-dihydro-1,6-naphthyridin-3-yl)-2-fluorophenyl)-3-(3-fluorophenyl)urea]	7.00 to 8.00
7.00 to 8.00	> 8.00	6.00 to 7.00	7.00 to 8.00	CCn1c(=O)c(-c2cc(NC(=O)Nc3ccccc3)c(F)cc2C)cc2cnc(NC)cc21 [Example 23, 1-(5-(1-ethyl-7-(methylamino)-2-oxo-1,2-dihydro-1,6-naphthyridin-3-yl)-2-fluoro-4-methylphenyl)-3-phenylurea]	> 8.00
7.00 to 8.00	> 8.00	6.00 to 7.00	7.00 to 8.00	CCn1c(=O)c(-c2cc(NC(=O)Nc3cccc(F)c3)c(F)cc2Cl)cc2cnc(NCCOC)cc21 [Example 28, 1-(4-chloro-5-(1-ethyl-7-(2-methoxyethylamino)-2-oxo-1,2-dihydro-1,6-naphthyridin-3-yl)-2-fluorophenyl)-3-(3-fluorophenyl)urea]	7.00 to 8.00
7.00 to 8.00	> 8.00	6.00 to 7.00	7.00 to 8.00	CCn1c(=O)c(-c2cc(NC(=O)Nc3ccccc3)c(F)cc2Cl)cc2cnc(NC)cc21 [Example 3, 1-(4-chloro-5-(1-ethyl-7-(methylamino)-2-oxo-1,2-dihydro-1,6-naphthyridin-3-yl)-2-fluorophenyl)-3-phenylurea]	> 8.00
> 8.00	7.00 to 8.00	7.00 to 8.00	7.00 to 8.00	CCn1c(=O)c(-c2cc(NC(=O)Nc3ccccc3)c(F)cc2Cl)cc2cnc(NC(C)=O)cc21 [Example 54, 1-(5-(7-acetamido-1-ethyl-2-oxo-1,2-dihydro-1,6-naphthyridin-3-yl)-4-chloro-2-fluorophenyl)-3-phenylurea]	> 8.00
6.00 to 7.00	7.00 to 8.00	6.00 to 7.00	> 8.00	CCn1c(=O)c(-c2cc(NC(=O)Nc3ccccc3)c(F)cc2Br)cc2cnc(N)cc21 [Example 57, 1-(5-(7-amino-1-ethyl-2-oxo-1,2-dihydro-1,6-naphthyridin-3-yl)-4-bromo-2-fluorophenyl)-3-phenylurea]	> 8.00
6.00 to 7.00	7.00 to 8.00	6.00 to 7.00	< 6.00	CCn1c(=O)c(-c2cc(NC(=O)Nc3ccccc3)c(F)cc2Br)cc2cnc(NCCOC)cc21 [Example 51, 1-(4-bromo-5-(1-ethyl-7-(2-methoxyethylamino)-2-oxo-1,2-dihydro-1,6-naphthyridin-3-yl)-2-fluorophenyl)-3-phenylurea]	> 8.00
7.00 to 8.00	7.00 to 8.00	7.00 to 8.00	7.00 to 8.00	CCn1c(=O)c(-c2cc(NC(=O)Nc3ccccc3)c(F)cc2Cl)cc2cnc(NCCOC)cc21 [Example 27, 1-(4-chloro-5-(1-ethyl-7-(2-methoxyethylamino)-2-oxo-1,2-dihydro-1,6-naphthyridin-3-yl)-2-fluorophenyl)-3-phenylurea]	
